# From patent US10206904B2, “Licofelone derivatives and methods of use” (The Board of Regents of the University of Oklahoma, priority 2015, dated 2019)
# Entries after “also recorded” stand apart in the source; their conditions may differ. Where two headings read alike, the source gives them in different places.
# Conditions: for Major Organ Toxicity / Liver enzymes ALKP / Liver enzymes ALT / Liver enzymes AST / Liver enzymes LDH / Ulceration (Grade) Colon / Ulceration (Grade) Small Intestine / Ulceration (Grade) Stomach: 6 weeks, male C57 mice; for Liver enzymes ALKP / Liver enzymes ALT / Liver enzymes AST / Liver enzymes LDH: Mean ± SEM
# 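Also: gross examination of all organs at necropsy, with liver enzyme profile and GI ulceration assessed in collected tissues and blood.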
# Description: Body weights and symptoms of toxicity were recorded twice weekly for 6 weeks. […] All organs were examined grossly for any abnormalities upon necropsy. Livers, kidney, stomach, intestinal tract, and blood were obtained from the animals and analyzed for Liver enzyme profile, GI ulceration, and levels of test agents.
# All animals found dead will be necropsied to confirm that the most likely cause of death was due to intestinal ulcerations.
structure (smiles),measurement,setting,value
"CCCCCCC(Sc1nc(Cl)cc(Nc2cccc(C)c2C)n1)C(=O)O (stereo not shown) [YS-121, reference compound]",Major Organ Toxicity,25 ppm in diet,None
same,Liver enzymes ALKP,25 ppm in diet,183 ± 24 units/L
same,Liver enzymes ALT,25 ppm in diet,81 ± 11 units/L
same,Liver enzymes AST,25 ppm in diet,77 ± 8.6 units/L
same,Liver enzymes LDH,25 ppm in diet,388 ± 29 units/L
same,Major Organ Toxicity,50 ppm in diet,None
same,Liver enzymes ALKP,50 ppm in diet,198 ± 33 units/L
same,Liver enzymes ALT,50 ppm in diet,96 ± 14 units/L
same,Liver enzymes AST,50 ppm in diet,90 ± 7.8 units/L
same,Liver enzymes LDH,50 ppm in diet,451 ± 38 units/L
same,toxicity,"75 ppm and above dose levels in diet, mice",significant toxicity
same,Major Organ Toxicity,75 ppm in diet,Liver
same,Liver enzymes ALKP,75 ppm in diet,358 ± 47 units/L
same,Liver enzymes ALT,75 ppm in diet,147 ± 17 units/L
same,Liver enzymes AST,75 ppm in diet,118 ± 18 units/L
same,Liver enzymes LDH,75 ppm in diet,540 ± 51 units/L
same,Major Organ Toxicity,100 ppm in diet,Liver*
same,Ulceration (Grade) Colon,100 ppm in diet,"Grade: 0, 1"
same,Ulceration (Grade) Small Intestine,100 ppm in diet,Grade: 1
same,Ulceration (Grade) Stomach,100 ppm in diet,Grade: 2-3
same,Liver enzymes ALKP,100 ppm in diet,477 ± 51 units/L
same,Liver enzymes ALT,100 ppm in diet,194 ± 23 units/L
same,Liver enzymes AST,100 ppm in diet,169 ± 29 units/L
same,Liver enzymes LDH,100 ppm in diet,883 ± 68 units/L
same,Major Organ Toxicity,200 ppm in diet,Liver**; also recorded: Stomach
same,Ulceration (Grade) Colon,200 ppm in diet,Grade: 2
same,Ulceration (Grade) Small Intestine,200 ppm in diet,Grade: 4
same,Ulceration (Grade) Stomach,200 ppm in diet,Grade: 5
